Assays:
[1] = target: T1, fatty acyl CoA:cholesterol acyl transferase (ACAT) (Rattus norvegicus, UniProt O70536); test: Inhibition of ACAT in rat adrenal microsomal supernatant (14C-oleoyl CoA, cholesteryl ester counted); assay type: biochemical; set-up: dose or concentration left out as unconfirmed; settings: vs control without compound
T1 construct: The supernatant, containing the microsomal fraction, served as the source of the cholesterol-esterifying enzyme; from tissue; host or cells: rat adrenals (1000 x g supernatant containing the microsomal fraction)
T1 sequence (O70536 1-545): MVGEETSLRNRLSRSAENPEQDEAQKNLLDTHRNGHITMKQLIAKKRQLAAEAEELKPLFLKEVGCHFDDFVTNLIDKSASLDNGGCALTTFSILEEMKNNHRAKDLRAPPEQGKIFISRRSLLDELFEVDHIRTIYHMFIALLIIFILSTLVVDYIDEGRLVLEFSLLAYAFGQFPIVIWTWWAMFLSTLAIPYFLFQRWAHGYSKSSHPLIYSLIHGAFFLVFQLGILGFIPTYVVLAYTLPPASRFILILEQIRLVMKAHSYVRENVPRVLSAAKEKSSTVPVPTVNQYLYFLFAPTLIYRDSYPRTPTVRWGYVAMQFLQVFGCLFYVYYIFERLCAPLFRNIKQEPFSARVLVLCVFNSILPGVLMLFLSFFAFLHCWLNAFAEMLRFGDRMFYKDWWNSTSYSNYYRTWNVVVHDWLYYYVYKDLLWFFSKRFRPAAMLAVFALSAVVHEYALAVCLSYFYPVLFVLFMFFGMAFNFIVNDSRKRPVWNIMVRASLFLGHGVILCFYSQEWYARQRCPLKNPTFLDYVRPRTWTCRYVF
Experimental: The compounds of the present invention were assayed for two types of biological activity related to their potential use as antiatherosclerotic agents. Compounds were tested in vitro for the ability to inhibit the enzyme fatty acyl CoA:cholesterol acyl transferase (ACAT) and in vivo for serum hypolipidemic activity as measured by their ability to inhibit lipid absorption in rats. The compounds were tested for their ability to inhibit ACAT according to the following procedure:
Rat adrenals were homogenized in 0.2 M monobasic potassium phosphate buffer, pH 7.4, and centrifuged at 1000 times gravity for 15 minutes at 5° C. The supernatant, containing the microsomal fraction, served as the source of the cholesterol-esterifying enzyme, fatty acyl CoA:cholesterol acyl transferase (ACAT). A mixture comprising 50 parts of adrenal supernatant, 10 parts of albumin (BSA) (50 mg./ml.), 3 parts of test compound (final concentration […].) and 500 parts of buffer was preincubated at 37° C. for 10 minutes. After treatment with 20 parts of oleoyl CoA(^14 C-[…]) the mixture was incubated at 37° C. for 10 minutes. A control mixture, omitting the test compound, was prepared and treated in the same manner. The lipids from the incubation mixture were extracted into an organic solvent and separated by thin-layer chromatography. The cholesteryl ester fraction was counted in a scintillation counter. This procedure is a modification of that described by Hashimoto, et al., Life Scie., 12 (Part II), 1-12 (1973).

cholesterol absorption = settings: po, 0.03 % of diet, 336 h
Experimental: Inhibition of cholesterol absorption was determined by feeding male Sprague-Dawley rats, weighing 150-170 g., a 1% cholesterol:0.5% cholic acid diet for 2 weeks. The diet also contained compounds being tested at a dose of 0.03% of the diet. Control rats were fed the same diet without any compound. At the end of the test the rats were sacrificed by decapitation. […] Livers are removed, a 0.4 g sample is taken from the center of the large lobe, and the sample is subjected to saponification using 25% saturated potassium hydroxide in ethanol. The resulting neutral sterols are extracted with petroleum ether and extract analyzed for cholesterol. The effectiveness of the compound in inhibiting cholesterol absorption is measured by the lowering of either serum cholesterol or liver cholesterol relative the values for control rats.

| Compound | % Inhibition [1] | Result (inhibition of cholesterol absorption: lowering of either serum cholesterol or liver cholesterol relative to control rats) (cholesterol absorption) |
| --- | --- | --- |
| 1,1-di-(n-butyl)-3-(2,3-dibenzophenyl)urea | 85.1% |  |
| Cc1ccc(NC(=O)N(CCCCC2CCCCC2)CCCCC2CCCCC2)c(C)c1 [1,1-Di-(4-cyclohexyl-n-butyl)-3-(2,4-dimethylphenyl)urea] | 86.3% |  |
| Cc1ccc(NC(=O)N(C2CCCC2)C2CCCC2)c(C)c1 [1,1-Di-(cyclopentyl)-3-(2,4-dimethylphenyl)urea] | 90.4% |  |
| CCCCN(CCCC)C(=O)Nc1cc(Cl)cc(Cl)c1Cl [1,1-Di-(n-butyl)-3-(2,3,5-trichlorophenyl)urea] | 61.6% |  |
| CCCCN(CCCC)C(=O)Nc1cccc(Cl)c1Cl [1,1-Di-(n-butyl)-3-(2,3-dichlorophenyl)urea] | 71.8% |  |
| CCCCN(CCCC)C(=O)Nc1cccc(C)c1C [1,1-Di-(n-butyl)-3-(2,3-dimethylphenyl)urea] | 87.6% |  |
| CCCCN(CCCC)C(=O)Nc1c(C)cc(C)cc1C [1,1-Di-(n-butyl)-3-(2,4,6-trimethylphenyl)urea] | 73.4% |  |
| CCCCN(CCCC)C(=O)Nc1ccc(Cl)cc1Cl [1,1-Di-(n-butyl)-3-(2,4-dichlorophenyl)urea] | 70.0% |  |
| CCCCN(CCCC)C(=O)Nc1cc(C)ccc1C [1,1-Di-(n-butyl)-3-(2,5-dimethylphenyl)urea] | 96.1% |  |
| CCCCN(CCCC)C(=O)Nc1c(C)cccc1C [1,1-Di-(n-butyl)-3-(2,6-dimethylphenyl)urea] | 85.3% |  |
| CCCCN(CCCC)C(=O)Nc1ccc([N+](=O)[O-])cc1Cl [1,1-Di-(n-butyl)-3-(2-chloro-4-nitrophenyl)urea] | 86.7% |  |
| CCCCN(CCCC)C(=O)Nc1ccc(C)c(C)c1 [1,1-Di-(n-butyl)-3-(3,4-dimethylphenyl)urea] | 49.2% |  |
| CCCCN(CCCC)C(=O)Nc1cc(Cl)cc(Cl)c1 [1,1-Di-(n-butyl)-3-(3,5-dichlorophenyl)urea] | 79.3% | Active |
| CCCCN(CCCC)C(=O)Nc1cc(C)cc(C)c1 [1,1-Di-(n-butyl)-3-(3,5-dimethylphenyl)urea] | 83.5% | Active |
| CCCCN(CCCC)C(=O)Nc1cccc(Cl)c1C [1,1-Di-(n-butyl)-3-(3-chloro-2-methylphenyl)urea] | 80.2% | Active |
| CCCCN(CCCC)C(=O)Nc1ccc(F)c(Cl)c1 [1,1-Di-(n-butyl)-3-(3-chloro-4-fluorophenyl)urea] | 90.9% |  |
| CCCCN(CCCC)C(=O)Nc1ccc(C)c(Cl)c1 [1,1-Di-(n-butyl)-3-(3-chloro-4-methylphenyl)urea] | 91.2% |  |
| CCCCN(CCCC)C(=O)Nc1cccc(SC)c1 [1,1-Di-(n-butyl)-3-(3-methylthiophenyl)urea] | 84.7% |  |
| CCCCN(CCCC)C(=O)Nc1cccc(C(F)(F)F)c1 [1,1-Di-(n-butyl)-3-(3-trifluoromethylphenyl)urea] | 75.0% |  |
| CCCCN(CCCC)C(=O)Nc1ccc(Cl)c(C(F)(F)F)c1 [1,1-Di-(n-butyl)-3-(4-chloro-3-trifluoromethylphenyl)urea] | 87.3% |  |
| CCCCN(CCCC)C(=O)Nc1ccc(C(C)C)cc1 [1,1-Di-(n-butyl)-3-(4-isopropylphenyl)urea] | 76.4% |  |
| CCCCCCCCCCCCN(CCCCCCCCCCCC)C(=O)Nc1ccc(C)cc1C [1,1-Di-(n-dodecyl)-3-(2,4-dimethylphenyl)urea] | 26.3% |  |
| CCCCCCCN(CCCCCCC)C(=O)Nc1ccc(C)cc1C [1,1-Di-(n-heptyl)-3-(2,4-dimethylphenyl)urea] | 91.1% |  |
| CCCCCCCCCN(CCCCCCCCC)C(=O)Nc1ccc(C)cc1C [1,1-Di-(n-nonyl)-3-(2,4-dimethylphenyl)urea] | 90.0% |  |

| Compound | % Inhibition [1] | Result (inhibition of cholesterol absorption: lowering of either serum cholesterol or liver cholesterol relative to control rats) (cholesterol absorption) |
| --- | --- | --- |
| CCCCCCCCCCCN(CCCCCCCCCCC)C(=O)Nc1ccc(C)cc1C [1,1-Di-(n-undecyl)-3-(2,4-dimethylphenyl)urea] | 48.9% |  |
| CCC(C)N(C(=O)Nc1ccc(C)cc1C)C(C)CC (centres unmarked) [1,1-Di-(sec-butyl)-3-(2,4-dimethylphenyl)urea] | 78.1% |  |
| CCCCC(CC)CN(CC(CC)CCCC)C(=O)Nc1ccc(C)cc1C (centres unmarked) [1,1-di-(2-ethylhexyl)-3-(2,4-dimethylphenyl)urea] | 86.2% |  |
| Cc1ccc(C)c(NC(=O)N(CC(C)C)CC(C)C)c1 [1,1-di-(isobutyl)-3-(2,5-dimethylphenyl)urea] | 74.3% |  |
| Cc1cccc(C)c1NC(=O)N(CC(C)C)CC(C)C [1,1-di-(isobutyl)-3-(2,6-dimethylphenyl)urea] | 41.2% |  |
| CC(C)CN(CC(C)C)C(=O)Nc1ccccc1Cl [1,1-di-(isobutyl)-3-(2-chlorophenyl)urea] | 35.4% |  |
| Cc1ccc(NC(=O)N(CC(C)C)CC(C)C)cc1NC(=O)N(CC(C)C)CC(C)C [1,1-di-(isobutyl)-3-[(3,3-diisobutyl)urea-4-methylphenyl]urea] | 94.7% |  |
| CCCCN(CCCC)C(=O)Nc1ccccc1Cl [1,1-di-(n-butyl)-3-(2-chlorophenyl)urea, 1,1-Di-(n-butyl)-3-(2-chlorophenyl)urea] | 71.0% |  |
| CCCCN(CCCC)C(=O)Nc1cccc(C(C)=O)c1 [1,1-di-(n-butyl)-3-(3-acetylphenyl)urea, 1,1-Di-(n-butyl)-3-(3-acetylphenyl)urea] | 50.9% |  |
| CCCCN(CCCC)C(=O)Nc1cccc(Br)c1 [1,1-di-(n-butyl)-3-(3-bromophenyl)urea, 1,1-Di(n-butyl)-3-(3-bromophenyl)urea] | 86.0% |  |
| CCCCN(CCCC)C(=O)Nc1cccc(Cl)c1 [1,1-di-(n-butyl)-3-(3-chlorophenyl)urea, 1,1-Di-(n-butyl)-3-(3-chlorophenyl)urea] | 88.3% |  |
| CCCCN(CCCC)C(=O)Nc1cccc(OC)c1 [1,1-di-(n-butyl)-3-(3-methoxyphenyl)urea] | 77.1% |  |
| CCCCN(CCCC)C(=O)Nc1cccc(C)c1 [1,1-di-(n-butyl)-3-(3-methylphenyl)urea, 1,1-Di-(n-butyl)-3-(3-methylphenyl)urea] | 78.4% |  |
| CCCCN(CCCC)C(=O)Nc1ccc(C(C)=O)cc1 [1,1-di-(n-butyl)-3-(4-acetylphenyl)urea, 1,1-Di-(n-butyl)-3-(4-acetylphenyl)urea] | 55.1% |  |
| CCCCN(CCCC)C(=O)Nc1ccc(Cl)cc1C [1,1-di-(n-butyl)-3-(4-chloro-2-methylphenyl)urea] | 88.0% |  |
| CCCCN(CCCC)C(=O)Nc1ccc(OCC)cc1 [1,1-di-(n-butyl)-3-(4-ethoxyphenyl)urea, 1,1-Di-(n-butyl)-3-(4-ethoxyphenyl)urea] | 78.6% |  |
| CCCCN(CCCC)C(=O)Nc1ccc(F)cc1 [1,1-di-(n-butyl)-3-(4-fluorophenyl)urea, 1,1-Di-(n-butyl)-3-(4-fluorophenyl)urea] | 55.9% |  |
| CCCCN(CCCC)C(=O)Nc1ccc(I)cc1 [1,1-di-(n-butyl)-3-(4-iodophenyl)urea, 1,1-Di-(n-butyl)-3-(4-iodophenyl)urea] | 83.1% |  |
| CCCCN(CCCC)C(=O)Nc1ccc(OC)cc1 [1,1-di-(n-butyl)-3-(4-methoxyphenyl)urea, 1,1-Di-(n-butyl)-3-(4-methoxyphenyl)urea] | 58.7% |  |
| CCCCN(CCCC)C(=O)Nc1ccc(C)cc1 [1,1-di-(n-butyl)-3-(4-methylphenyl)urea, 1,1-Di-(n-butyl)-3-(4-methylphenyl)urea] | 79.9% |  |
| CCCCN(CCCC)C(=O)Nc1cc(Cl)ccc1C [1,1-di-(n-butyl)-3-(5-chloro-2-methylphenyl)urea] | 75.3% |  |
| CCCCN(CCCC)C(=O)Nc1ccc(C)c(NC(=O)N(CCCC)CCCC)c1 [1,1-di-(n-butyl)-3-[(3,3-dibutyl)urea-4-methylphenyl]urea] | 94.5% |  |
| Cc1ccc(NC(=O)N(C2CCCCC2)C2CCCCC2)c(C)c1 [1,1-dicyclohexyl-3-(2,4-dimethylphenyl)urea] | 94.3% |  |

Source: patent publication US4387105A, “Methods of treating atherosclerosis with dialkylureas and dialkylthioureas” (priority 1982, dated 1983)
